Measured values taken from patent US20230144436A1, “MUSCLE TARGETING COMPLEXES AND USES THEREOF FOR TREATING MYOTONIC DYSTROPHY” (Dyne Therapeutics, Inc., priority 2020, published 2023).

Tested on: DMPK
Test: DMPK knockdown by transfected antisense oligonucleotides in DM1 C15 myotubes at 0.5 nM and 50 nM
Type: cell-based
Settings: 72 hours; for Normalized DMPK Remaining: relative to vehicle control = 1.00
How it was run: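 DMPK remaining was measured by qPCR 72 h post-transfection, normalized to lipofectamine-only vehicle wells (=1.00). Oligonucleotides were delivered at 0.5 and 50 nM final to DM1 C15 myoblasts differentiated seven days into myotubes, in triplicate.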

Substance	Percent DMPK Reduction (0.5 nM oligonucleotide)	Normalized DMPK Remaining (0.5 nM oligonucleotide)	Percent DMPK Reduction (50 nM oligonucleotide)	Normalized DMPK Remaining (50 nM oligonucleotide)
411 (UUGCCCAUCCACGUCAGGGC; chemistry not given here) [compound 411]	22.23%	0.78	67.15%	0.33
412 (AGGUACAGGUAGUUCUCAUC; chemistry not given here) [compound 412]	18.68%	0.81	58.92%	0.41
413 (GACAGACAAUAAAUACCGAG; chemistry not given here) [compound 413]	18.26%	0.82	38.07%	0.62
414 (UAGAACAUUUCAUAGGCGAA; chemistry not given here) [compound 414]	20.23%	0.80	43.67%	0.56
415 (AGGGCCUUUUAUUCGCGAGG; chemistry not given here) [compound 415]	13.63%	0.86	66.43%	0.34
416 (GCCUCGCGUAGUUGACUGGC; chemistry not given here) [compound 416]	12.98%	0.87	91.10%	0.09
417 (CCAGCAGGAUGUUGUCGGGU; chemistry not given here) [compound 417]	40.29%	0.60	89.59%	0.10
418 (GUAGUUGACUGGCGAAGUUC; chemistry not given here) [compound 418]	7.50%	0.93	45.33%	0.55
419 (UGCGGAUGGCCUCCAUCUCC; chemistry not given here) [compound 419]	40.15%	0.60	84.43%	0.16
420 (ACAAUCUCCGCCAGGUAGAA; chemistry not given here) [compound 420]	19.09%	0.81	49.75%	0.50
421 (GCGAAUACACCCAGCGCCCA; chemistry not given here) [compound 421]	6.94%	0.93	69.72%	0.30
422 (GUAGUUCUCAUCCUGGAAGG; chemistry not given here) [compound 422]	7.43%	0.93	55.09%	0.45
423 (GGCUCAGGCUCUGCCGGGUG; chemistry not given here) [compound 423]	7.38%	0.93	65.82%	0.34
424 (CCAUUCACCAACACGUCCCU; chemistry not given here) [compound 424]	39.26%	0.61	86.83%	0.13
425 (ACCAGGUACAGGUAGUUCUC; chemistry not given here) [compound 425]	16.09%	0.84	76.96%	0.23
426 (CTGCAGUUUGCCCAUCCACG; chemistry not given here) [compound 426]	-10.69%	1.11	60.08%	0.40
427 (UUGUUCAUGAUCUUCAUGGC; chemistry not given here) [compound 427]	14.13%	0.86	45.23%	0.55
428 (UUGAUGUCCCUGUGCACGU; chemistry not given here) [compound 428]	6.92%	0.93	43.07%	0.57
429 (GCGGUCCAGCAGGAUGUUGU; chemistry not given here) [compound 429]	38.84%	0.61	83.64%	0.16
430 (GUCUAUGGCCAUGACAAUCU; chemistry not given here) [compound 430]	-11.00%	1.11	73.11%	0.27

Substance	Percent DMPK Reduction (0.5 nM oligonucleotide)	Normalized DMPK Remaining (0.5 nM oligonucleotide)	Percent DMPK Reduction (50 nM oligonucleotide)	Normalized DMPK Remaining (50 nM oligonucleotide)
431 (GGAGCAGGGAAAGCGCCUCC; chemistry not given here) [compound 431]	21.46%	0.79	88.35%	0.12
432 (UGCCUCGCGUAGUUGACUGG; chemistry not given here) [compound 432]	11.03%	0.89	88.02%	0.12
433 (GCGGAUGGCCUCCAUCUCCC; chemistry not given here) [compound 433]	21.25%	0.79	71.77%	0.28
434 (UUUCAUAGGCGAAUACACCC; chemistry not given here) [compound 434]	5.56%	0.94	53.28%	0.47
435 (GCCUGUCAGCGAGUCGGAGG; chemistry not given here) [compound 435]	10.81%	0.89	75.67%	0.24
436 (CCACUUCAGCUGUUUCAUCC; chemistry not given here) [compound 436]	22.40%	0.78	64.20%	0.36
437 (CAUCCGCUCCUGCAACUGCC; chemistry not given here) [compound 437]	21.04%	0.79	76.81%	0.23
438 (UCUAGGGUUCAGGGAGCGCG; chemistry not given here) [compound 438]	21.81%	0.78	83.22%	0.17
439 (CACCAACACGUCCCUCUCCU; chemistry not given here) [compound 439]	37.51%	0.62	81.57%	0.18
440 (CAGGAGCAGGGAAAGCGCCU; chemistry not given here) [compound 440]	12.48%	0.88	51.82%	0.48
441 (CAAUCUCCGCCAGGUAGAAG; chemistry not given here) [compound 441]	15.95%	0.84	49.25%	0.51
442 (AUGUUGUCGGGUUUGAUGUC; chemistry not given here) [compound 442]	16.93%	0.83	52.83%	0.47
443 (CCAUCCGCUCCUGCAACUGC; chemistry not given here) [compound 443]	19.53%	0.80	71.62%	0.28
444 (GCGUCACCUCGGCCUCAGCC; chemistry not given here) [compound 444]	20.02%	0.80	81.27%	0.19
445 (GAGGGCCUUUUAUUCGCGAG; chemistry not given here) [compound 445]	8.23%	0.92	62.21%	0.38
446 (AGCGGCAGAGAGAGGUGCUC; chemistry not given here) [compound 446]	19.75%	0.80	90.71%	0.09
447 (CAUCCAAAACGUGGAUUGGG; chemistry not given here) [compound 447]	19.12%	0.81	77.98%	0.22
448 (UUGGGCAGAUGGAGGGCCUU; chemistry not given here) [compound 448]	19.08%	0.81	78.39%	0.22
449 (CCUCUGCCUCGCGUAGUUGA; chemistry not given here) [compound 449]	7.39%	0.93	85.33%	0.15
450 (ACAGAACAACGGCGAACAGG; chemistry not given here) [compound 450]	2.07%	0.98	55.96%	0.44
